Measured values published in ChEMBL document CHEMBL1201862, “PubChem BioAssay data set” (2004).
Active and inactive are the calls of the source.

Assays:
Cytochrome P450 2C19 = Cytochrome P450 2C19 (Homo sapiens, UniProt P33261); test: Cytochrome panel assay with activity outcomes. Panel member name: p450-cyp2c19 Compounds with AC50 equal or less than 10 uM are considered active; type: functional
[1] = biological target: T1, Heat shock factor protein 1 (Mus musculus, UniProt P38532); test: inhibition of MG132-induced HSE-luciferase signal, confirmation, cell-based, NIH3T3, luminescence, dose retest (AID 2382); type: functional;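 further: NIH3T3 fibroblasts with HSF1-driven luciferase reporter stressed by proteasome inhibitor MG132; luminescence from HSF1-driven luciferase expression after 8 hours of MG132 stress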
T1 sequence (P38532 whole entry): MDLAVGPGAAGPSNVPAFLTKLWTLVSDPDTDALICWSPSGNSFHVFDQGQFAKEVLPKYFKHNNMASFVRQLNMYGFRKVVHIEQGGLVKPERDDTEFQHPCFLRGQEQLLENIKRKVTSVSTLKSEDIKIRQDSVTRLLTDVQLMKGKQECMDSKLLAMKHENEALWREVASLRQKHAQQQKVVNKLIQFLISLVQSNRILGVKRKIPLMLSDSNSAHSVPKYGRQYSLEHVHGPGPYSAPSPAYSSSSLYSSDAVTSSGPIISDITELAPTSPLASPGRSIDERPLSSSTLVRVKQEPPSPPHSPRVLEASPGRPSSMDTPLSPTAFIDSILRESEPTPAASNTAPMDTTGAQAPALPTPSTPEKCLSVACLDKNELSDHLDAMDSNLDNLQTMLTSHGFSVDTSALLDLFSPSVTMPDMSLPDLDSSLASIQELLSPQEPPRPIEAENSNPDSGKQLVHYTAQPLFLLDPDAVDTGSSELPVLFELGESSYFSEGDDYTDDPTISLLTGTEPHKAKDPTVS

Cytochrome P450 3A4 = Cytochrome P450 3A4 (Homo sapiens, UniProt P08684);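 further: CYP3A4 tested as one member of a cytochrome P450 panel screen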
Sequence of Cytochrome P450 3A4 (P08684 whole entry): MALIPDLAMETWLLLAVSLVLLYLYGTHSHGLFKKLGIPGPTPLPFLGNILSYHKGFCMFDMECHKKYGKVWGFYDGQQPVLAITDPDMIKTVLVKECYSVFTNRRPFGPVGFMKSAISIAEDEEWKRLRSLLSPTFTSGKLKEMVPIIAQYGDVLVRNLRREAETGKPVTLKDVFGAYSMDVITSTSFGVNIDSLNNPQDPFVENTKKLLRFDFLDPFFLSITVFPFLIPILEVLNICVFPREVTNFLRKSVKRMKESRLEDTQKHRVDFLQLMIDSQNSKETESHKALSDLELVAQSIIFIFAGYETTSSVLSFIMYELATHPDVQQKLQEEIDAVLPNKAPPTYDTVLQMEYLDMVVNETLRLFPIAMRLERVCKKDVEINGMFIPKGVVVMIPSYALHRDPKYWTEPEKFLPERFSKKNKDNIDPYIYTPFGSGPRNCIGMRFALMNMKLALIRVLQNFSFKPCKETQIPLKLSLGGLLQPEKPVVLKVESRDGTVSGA

[2] = cytotoxicity toward NIH3T3 fibroblasts, dose response, counter-screen, cell-based, ATP luminescence, mouse fibroblasts (AID 2010); type: functional;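 further: cells exposed to compound for about 90 hours before reading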
[3] = inhibitors of intracellular T. cruzi replication, confirmation, NIH3T3 host cells, beta-gal luminescence (AID 2044); type: functional, cell-based;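 further: intracellular parasites grown in NIH/3T3 mouse fibroblasts as host cells; luminescent beta-galactosidase reporter signal from transgenic T. cruzi replicating inside host cells; inhibitors lower the luminescence signal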
Cytochrome P450 2D6 = Cytochrome P450 2D6 (Homo sapiens, UniProt P10635);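 further: CYP2D6 member of a cytochrome P450 panel assay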
Sequence of Cytochrome P450 2D6 (P10635 whole entry): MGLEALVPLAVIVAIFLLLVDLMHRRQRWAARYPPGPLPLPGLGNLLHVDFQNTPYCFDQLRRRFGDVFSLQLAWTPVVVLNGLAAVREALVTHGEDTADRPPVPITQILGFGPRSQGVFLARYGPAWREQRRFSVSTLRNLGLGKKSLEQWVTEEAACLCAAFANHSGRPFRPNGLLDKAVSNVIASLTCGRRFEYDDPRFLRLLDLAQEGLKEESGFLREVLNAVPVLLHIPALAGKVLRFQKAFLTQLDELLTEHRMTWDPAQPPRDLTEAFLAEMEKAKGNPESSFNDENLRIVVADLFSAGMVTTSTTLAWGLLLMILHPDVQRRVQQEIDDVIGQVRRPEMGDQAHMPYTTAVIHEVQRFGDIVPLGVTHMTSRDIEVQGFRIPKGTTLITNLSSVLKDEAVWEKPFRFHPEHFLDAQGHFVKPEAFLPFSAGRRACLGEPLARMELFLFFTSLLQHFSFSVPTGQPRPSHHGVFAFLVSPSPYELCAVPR

[4] = system: Streptococcus sp. 'group A'; test: growth inhibition of control SK(-) GAS strain, dose response, counter-screen for streptokinase expression inhibitor project, luminescence, kanamycin, BacTiterGlo, confirmation (AID 1900); type: functional, organism-based
Streptococcus = test: Group A Streptococcus viability loss, dose response, counter-screen for streptokinase expression inhibitor project, luminescence, BacTiterGlo (AID 1915); type: functional, organism-based;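 further: potency for reduction of bacterial viability or growth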

Sequence of Cytochrome P450 2C19 (P33261 whole entry): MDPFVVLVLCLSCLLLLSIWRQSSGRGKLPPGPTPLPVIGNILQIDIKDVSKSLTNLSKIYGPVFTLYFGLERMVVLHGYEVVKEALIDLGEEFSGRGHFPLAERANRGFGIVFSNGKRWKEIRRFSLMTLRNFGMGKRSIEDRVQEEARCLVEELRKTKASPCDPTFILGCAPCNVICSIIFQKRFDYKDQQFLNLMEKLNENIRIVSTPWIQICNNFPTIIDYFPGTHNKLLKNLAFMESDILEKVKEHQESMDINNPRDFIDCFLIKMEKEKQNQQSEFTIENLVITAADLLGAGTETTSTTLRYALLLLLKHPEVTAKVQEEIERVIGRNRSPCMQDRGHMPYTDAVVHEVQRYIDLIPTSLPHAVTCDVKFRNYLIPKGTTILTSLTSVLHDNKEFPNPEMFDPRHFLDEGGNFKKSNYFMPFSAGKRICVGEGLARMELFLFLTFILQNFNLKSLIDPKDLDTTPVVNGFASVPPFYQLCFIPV

N[C@H](CCCC(=O)O)C(=O)O
AC50 (Cytochrome P450 2C19): inconclusive

O=C(O)C1C2C=CC(O2)C1C(=O)Nc1ccc2c(c1)OCCO2 (configuration not stated)
EC50 [1]: 25.9 µM (active)

O=C1CCC[C@@H](C(C(=O)OCc2ccccc2)C(=O)OCc2ccccc2)C1
AC50 (Cytochrome P450 3A4): 3.98 µM (inconclusive)
AC50 (Cytochrome P450 2C19; read-out: AC50): 3.98 µM (inconclusive)

COc1cc(NC(=O)c2cc(-c3ccc4c(c3)OCO4)on2)cc(OC)c1OC
EC50 [2]: > 30 µM (not active)
EC50 [3]: 0.115 µM (active)

Cn1c(=O)c2nc(CCS)[nH]c2n(C)c1=O
AC50 (Cytochrome P450 3A4): 10 µM (inconclusive)

Cc1ccc(OCC(=O)Nc2cnc(O)nc2O)cc1C
EC50 [1]: > 195 µM (not active)

CC(C)Cn1c(N)c(C(=O)CSc2nc3ccccc3c(=O)n2CCCN2CCOCC2)c(=O)n(C)c1=O
EC50 [2]: > 60 µM (not active)
EC50 [3]: 1.5 µM (active)

CCOc1ccc(C(=O)COC(=O)Cc2nnc(O)c3ccccc23)cc1
EC50 [1]: > 195 µM (not active)

OC(COc1ccc(F)cc1Cl)CN1CCC(Cc2ccccc2)CC1 (configuration not stated)
EC50 [2]: > 30 µM (not active)
EC50 [3]: 4.04 µM (active)

CN1CCN(c2nc(Nc3cccc(C(F)(F)F)c3)nc(N3CCOCC3)n2)CC1
EC50 [2]: 10.3 µM (active)
EC50 [3]: 1.78 µM (active)

Cc1ccc(-n2c(=O)cc(N3CCN(Cc4ccccc4)CC3)[nH]c2=O)cc1
EC50 [1]: > 195 µM (not active)

CC(C)CCNC(=O)c1ccc2c(SCC(=O)O)c3c(nc2c1)CCC3
EC50 [1]: > 195 µM (not active)

Cc1nn(-c2ccc([N+](=O)[O-])cc2)c2c1C(c1ccc(OC(F)F)cc1)N1C(=N2)C(=O)Nc2ccccc21 (configuration not stated)
EC50 [2]: > 60 µM (not active)
EC50 [3]: 1.31 µM (active)

COC(=O)CSc1ccc2nnc(-c3ccc(F)cc3)n2n1
AC50 (Cytochrome P450 2C19; read-out: AC50): 28.2 µM (inconclusive)

CCCn1c(-c2cccs2)nc2nc3ccccc3nc21
AC50 (Cytochrome P450 2D6): 28.2 µM (inconclusive)

CCOC(=O)c1cc2c(C(F)(F)F)cc(-c3ccccc3)nc2o1
AC50 (Cytochrome P450 2C19; read-out: AC50): 25.1 µM (inconclusive)

Cc1nc2cnc(Nc3ccccc3)nc2n(C[C@H]2CCCO2)c1=O
AC50 (Cytochrome P450 3A4): 15.8 µM (inconclusive)

Clc1ccc(CNCCCSc2ncccn2)cc1Cl
EC50 [2]: > 60 µM (not active)
EC50 [3]: 1.19 µM (active)

Nc1cc(N)nc(SCC(=O)c2ccccc2)n1
AC50 (Cytochrome P450 3A4): 35.5 µM (inconclusive)
AC50 (Cytochrome P450 2C19; read-out: AC50): 7.08 µM (inconclusive)

Cc1cc(Nc2ccc3c(c2)OCCO3)c2cc(Cl)ccc2n1
EC50 [1]: 17.2 µM (active)

CC1(C)OC(=O)N(Cc2ccco2)C1(C)O (configuration not stated)
AC50 (Cytochrome P450 2C19; read-out: AC50): 14.1 µM (inconclusive)

CCN(CC)S(=O)(=O)c1ccc(C(=O)Nc2ncn(Cc3ccccc3)n2)cc1
AC50 (Cytochrome P450 2C19; read-out: AC50): 25.1 µM (inconclusive)

Cc1c(C2=CCN(S(=O)(=O)c3ccc(Br)cc3)CC2)c2ccccc2n1C
EC50 [1]: > 195 µM (not active)

Cc1ccc(S(=O)(=O)NCCSc2nnnn2C)cc1
AC50 (Cytochrome P450 3A4): 14.1 µM (inconclusive)

Cc1nc(C)c(-c2nnc(-c3cccc(S(=O)(=O)N(C)C)c3)o2)cc1C(=O)NN
EC50 [1]: > 195 µM (not active)

CCOC(=O)c1nc(Nc2cc(C)cc(C)c2)c2ccccc2n1
EC50 [2]: > 30 µM (not active)
EC50 [3]: 2.85 µM (active)

O=C(NCCc1csc(-c2ccccc2)n1)c1ccccc1F
EC50 [2]: > 60 µM (not active)
EC50 [3]: 0.531 µM (active)

NS(=O)(=O)c1ccc(Nc2nc(-c3cccc([N+](=O)[O-])c3)cs2)cc1
EC50 [2]: > 60 µM (not active)
EC50 [3]: 4.08 µM (active)

CC12CCC3C(CC=C4CC5(CCC43C)OCCO5)C1CCC2=O (configuration not stated)
EC50 [1]: > 195 µM (not active)

COCCn1c(=O)c(-c2cccs2)nc2cnc(OCc3ccccc3)nc21
AC50 (Cytochrome P450 3A4): 3.16 µM (inconclusive)

C/C=C(\C)CN1CCC(n2nccc2NC(=O)c2ccc(OC)cc2)CC1
EC50 [2]: > 60 µM (not active)
EC50 [3]: 0.703 µM (active)

COc1ccccc1CN1CCCC(CN(CCN(C)C)C(=O)C2CCCC2)C1 (configuration not stated)
EC50 [1]: > 195 µM (not active)

O=S(=O)(Nc1cccc(Oc2cnccn2)c1)c1ccc(F)cc1
EC50 [1]: > 195 µM (not active)

COc1cccc(-c2cc(NCc3cnc(C)cn3)ncn2)c1
AC50 (Cytochrome P450 2C19; read-out: AC50): 0.398 µM (inconclusive)

Cc1ccc([C@@]2(C)CC/C(=N/N=C3\CC[C@](C)(c4ccc(C)c(C)c4)c4cc(C)c(C)cc43)c3cc(C)c(C)cc32)cc1C
AC50 (Cytochrome P450 2C19): inconclusive

CN1CCN(c2ncnc3ccc(-c4ccc(C(=O)N(C)C)cc4)cc23)CC1
AC50 (Cytochrome P450 3A4): 25.1 µM (inconclusive)

CCOCCn1c(SCC(=O)OCc2ccccc2)nc2c1c(=O)[nH]c(=O)n2C
EC50 [1]: > 195 µM (not active)

O=C(NCc1ccccc1)c1onc(CSc2ccccc2)c1C(=O)NCC1CC1
EC50 [2]: > 60 µM (not active)
EC50 [3]: 4.28 µM (active)

CCOc1cccc(CN2CCCC(CCC(=O)NCc3ccccc3F)C2)c1O (configuration not stated)
EC50 [2]: > 60 µM (not active)
EC50 [3]: 0.222 µM (active)

CCOc1ccc(CN(C)CC(=O)Nc2cc(OC)c([N+](=O)[O-])cc2C)cc1
EC50 [2]: > 30 µM (not active)
EC50 [3]: 0.404 µM (active)

O=C(CN1CCN(Cc2ccccc2)CC1)c1ccc(Br)cc1
AC50 (Cytochrome P450 3A4): 14.1 µM (inconclusive)
AC50 (Cytochrome P450 2C19; read-out: AC50): 14.1 µM (inconclusive)

Cc1cc(/C=C2\SC(=O)NC2=O)c(C)n1-c1ccc(N2CCOCC2)cc1
EC50 [4]: 1.32 µM (active)
EC50 (Streptococcus): 4.72 µM (active)

NS(=O)(=O)c1ccc(/N=N\c2cc3ccccc3c(C(=O)O)c2O)cc1
AC50 (Cytochrome P450 3A4): 3.16 µM (inconclusive)

COC(=O)N1CCC2(CCN(Cc3ccc(C#N)cc3)CC2)CC1
AC50 (Cytochrome P450 2C19; read-out: AC50): 0.1 µM (inconclusive)

CC(NC(=O)CN1C(=O)NC(Cc2ccccc2)(Cc2ccccc2)C1=O)C12CC3CC(CC(C3)C1)C2 (configuration not stated)
EC50 [2]: > 30 µM (not active)
EC50 [3]: 2.81 µM (active)

O=C(NCCN1CCN(C(=O)c2cc3ccccc3oc2=O)CC1)c1cc2ccccc2oc1=O
AC50 (Cytochrome P450 3A4): 14.1 µM (inconclusive)
AC50 (Cytochrome P450 2C19; read-out: AC50): 3.98 µM (inconclusive)

Brc1ccccc1OCCCCCN1CCCC1
EC50 [2]: > 30 µM (not active)
EC50 [3]: 2.22 µM (active)

CCOC(=O)N1CCN(CC(O)COC2CC(C)CC(C)(C)C2)CC1 (configuration not stated)
EC50 [1]: > 195 µM (not active)

COc1ccc(COC(=O)N/N=C2/C[C@@H](O)[C@@H](O)[C@@H]3[C@@H]4C(=O)N(c5cccc(Oc6ccccc6)c5)C(=O)[C@H]4CC[C@@H]23)cc1
AC50 (Cytochrome P450 2D6): 3.16 µM (inconclusive)

Cc1nnc(Sc2cc(C(=O)NCCCN(C)Cc3ccccc3)c3ccccc3n2)s1
EC50 [2]: > 60 µM (not active)
EC50 [3]: 0.521 µM (active)

O=C(c1ccc(CN2CCc3ccccc3C2)cc1)N1CCc2ccccc2C1
AC50 (Cytochrome P450 3A4): 3.98 µM (inconclusive)

CN(C)c1ccc(-c2noc(C3CCN(C(=O)Nc4ccc(Cl)cc4)CC3)n2)cc1
EC50 [1]: > 195 µM (not active)

CCCCN1C(=O)NC(=O)/C(=C(/CC)NCc2ccc(F)cc2)C1=O
AC50 (Cytochrome P450 3A4): 28.2 µM (inconclusive)

c1cncc(-c2nc(N3CCNCC3)c3ccccc3n2)c1
AC50 (Cytochrome P450 3A4): 31.6 µM (inconclusive)

COc1ncc2ncc(=O)n(Cc3cccs3)c2n1
AC50 (Cytochrome P450 3A4): 1.26 µM (inconclusive)

CN(C)CCCN(C(=O)c1ccc(S(=O)(=O)N2CCc3ccccc32)cc1)c1nc2c(Cl)cccc2s1
EC50 [2]: 20.2 µM (active)
EC50 [3]: 0.206 µM (active)

O=C(c1ccccc1)N1CCN(CC2CC=CCC2)CC1 (configuration not stated)
EC50 [1]: > 195 µM (not active)

CC(=O)NC1(C(F)(F)F)C(=O)N(Cc2ccccc2)C2=C1C(=O)CC(C)(C)C2 (configuration not stated)
AC50 (Cytochrome P450 3A4): 14.1 µM (inconclusive)
AC50 (Cytochrome P450 2C19; read-out: AC50): 15.8 µM (inconclusive)

CC(C)N(CCC(=O)c1ccc2ccccc2c1)Cc1ccccc1
AC50 (Cytochrome P450 3A4): 39.8 µM (inconclusive)
